# Results taken from US7678807B2, “Isoquinoline and benzo[H] isoquinoline derivatives, preparation and therapeutic use thereof as antagonists of the histamine H3 receptor” (sanofi-aventis, priority 2005, dated 2010).
# pIC50, pKi: −log10 of the molar value. Counter-ions that a name gives are not always drawn.
# Target: native histamine H3 receptor (Rattus norvegicus, UniProt Q9QYN8)
# Experiment: in vitro affinity assay, specific binding of [3H]-N-α-methylhistamine, adult rat brain membrane preparation
# Conditions: adult rat brain membranes, read-out: Ki with regard to the H3 receptors
# From the text: Thus, the compounds of the invention of formula (I) were subjected to an in vitro affinity assay on the native histamine H3 receptor in an adult rat brain membrane preparation by the specific binding of [^3H]-N-α-methylhistamine to this receptor, according to methods described by Korte, A. et al. in Biochem. Biophys. Res. Commun., 168, 979-986 (1990) and by West, R. E. Jr. et al. in Mol. Pharmacol., 38, 610-613 (1990).
# Sequence of native histamine H3 receptor (Q9QYN8 1-397 isoform Q9QYN8-3): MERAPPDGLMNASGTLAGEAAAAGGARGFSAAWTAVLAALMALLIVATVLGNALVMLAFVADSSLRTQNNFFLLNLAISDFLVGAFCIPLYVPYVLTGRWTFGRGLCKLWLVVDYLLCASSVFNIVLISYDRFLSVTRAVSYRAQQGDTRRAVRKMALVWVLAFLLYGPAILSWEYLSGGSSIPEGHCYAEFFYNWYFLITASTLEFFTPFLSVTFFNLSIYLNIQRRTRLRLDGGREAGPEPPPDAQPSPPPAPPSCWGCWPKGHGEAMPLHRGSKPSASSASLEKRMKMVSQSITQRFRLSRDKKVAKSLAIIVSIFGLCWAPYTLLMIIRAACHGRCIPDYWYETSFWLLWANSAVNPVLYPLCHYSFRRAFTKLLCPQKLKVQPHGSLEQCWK
row,pKi,SMILES
1,10.00,"CN1CCCC1CCOc1ccc2c(c1)CN(CC1CCCCC1)CC2 (stereo not drawn) [Compound 5, 2-(cyclohexylmethyl)-7-[2-(1-methylpyrrolidin-2-yl)ethoxy]-1,2,3,4-tetrahydroisoquinoline]"

# Target: T1, human histamine H3 receptor (Homo sapiens, UniProt Q9Y5N1)
# T1 construct: expressed in transfected cells; host or cells: CHO cells
# Experiment: cAMP formation assay, inhibition of R-α-methylhistamine agonism, receptor transfected into CHO cells (EIA kit)
# Format: cell-based
# Conditions: EIA kit (Amersham)
# From the text: The compounds of the invention of formula (I) were also subjected to a cAMP formation assay on the human histamine H3 receptor transfected into CHO cells by the inhibition of the agonism brought about by the specific binding of R-α-methylhistamine to this receptor, according to the methods described by Lovenberg, T. W. et al. in J. Pharmacol. Exp. Ther., 293, 771-778 (2000).
# T1 sequence (Q9Y5N1 whole entry): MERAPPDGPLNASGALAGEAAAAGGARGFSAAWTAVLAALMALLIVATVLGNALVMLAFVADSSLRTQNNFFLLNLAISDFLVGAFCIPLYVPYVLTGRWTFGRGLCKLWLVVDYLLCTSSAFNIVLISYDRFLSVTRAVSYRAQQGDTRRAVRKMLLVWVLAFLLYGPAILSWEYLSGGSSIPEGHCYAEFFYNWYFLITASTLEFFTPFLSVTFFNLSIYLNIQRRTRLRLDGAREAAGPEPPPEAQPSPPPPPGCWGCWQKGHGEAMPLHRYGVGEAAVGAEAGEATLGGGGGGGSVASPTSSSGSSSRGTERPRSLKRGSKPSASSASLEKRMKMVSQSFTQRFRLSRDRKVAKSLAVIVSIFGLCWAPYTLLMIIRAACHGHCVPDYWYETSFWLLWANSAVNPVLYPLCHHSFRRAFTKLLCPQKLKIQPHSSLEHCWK
row,pIC50,SMILES
1,> 8.00,"CN1CCCC1CCOc1ccc2c(c1)CN(CC1CCCCC1)CC2 (stereo not drawn) [Compound 5, 2-(cyclohexylmethyl)-7-[2-(1-methylpyrrolidin-2-yl)ethoxy]-1,2,3,4-tetrahydroisoquinoline]"

# Tested on: not given
# Experiment: not given
# Conditions: not given
row,SMILES,melting point
1,CCCN1CCc2ccc(OCCC3CCCCN3C)cc2C1 (stereo not drawn) (as salt: hydrochloride),186 to 190 °C
2,"CN1CCC[C@@H]1CCOc1ccc2c(c1)CN(CC1CCCCC1)CC2 (as salt: hydrochloride) [Compound 6, 2-(cyclohexylmethyl)-7-{2-[(2R)-1-methylpyrrolidin-2-yl]ethoxy}-1,2,3,4-tetrahydroisoquinoline]",190 to 200 °C
3,"CN1CCC[C@H]1CCOc1ccc2c(c1)CN(CC1CCCCC1)CC2 (as salt: oxalate) [Compound 7, 2-(cyclohexylmethyl)-7-{2-[(2S)-1-methylpyrrolidin-2-yl]ethoxy}-1,2,3,4-tetrahydroisoquinoline]",195 to 199 °C
4,"CN1CCCCC1CCOc1ccc2c(c1)CN(CC1CCCCC1)CC2 (stereo not drawn) (as salt: oxalate) [Compound 9, 2-(cyclohexylmethyl)-7-[2-(1-methylpiperidin-2-yl)ethoxy]-1,2,3,4-tetrahydroisoquinoline]",101 to 111 °C
5,"CN1CCCC1CCOc1ccc2c(c1)CN(Cc1ccccc1)CC2 (stereo not drawn) (as salt: oxalate) [Compound 10, 2-benzyl-7-[2-(1-methylpyrrolidin-2-yl)ethoxy]-1,2,3,4-tetrahydroisoquinoline]",143 to 150 °C
6,CC(C)CN1CCc2ccc(OCCC3CCCN3C)cc2C1 (stereo not drawn) (as salt: tartrate),77 to 80 °C
7,CCCCN1CCc2ccc(OC3CCCN(C)CC3)cc2C1 (stereo not drawn) (as salt: tartrate),96 to 107 °C
8,CCCCN1CCc2ccc(OCCC3CCCN3C)cc2C1 (stereo not drawn) (as salt: tartrate),95 to 105 °C
9,CCCN1CCc2ccc(OC3CCCN(C)CC3)cc2C1 (stereo not drawn) (as salt: tartrate),76 to 97 °C
10,CCCN1CCc2ccc(OCCC3CCCN3C)cc2C1 (stereo not drawn) (as salt: tartrate),66 to 91 °C
11,"CC(C)CCN1CCc2ccc(OCCC3CCCN3C)cc2C1 (stereo not drawn) (as salt: tartrate) [Compound 3, 2-(3-methylbutyl)-7-[2-(1-methylpyrrolidin-2-yl)ethoxy]-1,2,3,4-tetrahydroisoquinoline]",61 to 65 °C
12,"CC(C)CCN1CCc2ccc(OC3CCCN(C)CC3)cc2C1 (stereo not drawn) (as salt: tartrate) [Compound 4, 7-[(1-methylazepan-4-yl)oxy]-2-(3-methylbutyl)-1,2,3,4-tetrahydroisoquinoline]",60 to 70 °C

# Second part, the compound after the results:
row,melting point,SMILES
1,274 to 277 °C,"CN1CCC[C@@H]1CCOc1ccc2c3c(ccc2c1)CCN(CC1CCCCC1)C3 (as salt: hydrochloride) [Compound 14, 2-(cyclohexylmethyl)-8-{2-[(2R)-1-methylpyrrolidin-2-yl]ethoxy}-1,2,3,4-tetrahydrobenzo[h]isoquinoline]"
2,238 to 241 °C,"CN1CCC[C@H]1CCOc1ccc2c(c1)CN(CC1CCCCC1)CC2 (as salt: hydrochloride) [Compound 18, 2-(Cyclohexylmethyl)-7-(2-[(2S)-1-methylpyrrolidin-2-yl]ethoxy)-1,2,3,4-tetrahydroisoquinoline hydrochloride (1:2)]"
3,108 to 116 °C,"CN1CCCC(Oc2ccc3c(c2)CN(Cc2ccccc2)CC3)CC1 (stereo not drawn) (as salt: oxalate) [Compound 11, 2-benzyl-7-[(1-methylazepan-4-yl)oxy]-1,2,3,4-tetrahydroisoquinoline]"
4,98 to 110 °C,"CN1CCCC(Oc2ccc3c(c2)CN(Cc2cccs2)CC3)CC1 (stereo not drawn) (as salt: oxalate) [Compound 12, 7-[(1-methylazepan-4-yl)oxy]-2-(2-thienylmethyl)-1,2,3,4-tetrahydroisoquinoline]"
5,271 to 274 °C,"CN1CCC[C@H]1CCOc1ccc2c3c(ccc2c1)CCN(CC1CCCCC1)C3 (as salt: oxalate) [Compound 15, 2-(cyclohexylmethyl)-8-{2-[(2S)-1-methylpyrrolidin-2-yl]ethoxy}-1,2,3,4-tetrahydrobenzo[h]isoquinoline]"
6,77 to 82 °C,"CN1CCCC(Oc2ccc3c4c(ccc3c2)CCN(CC2CCCCC2)C4)CC1 (stereo not drawn) (as salt: oxalate) [Compound 16, 2-(cyclohexylmethyl)-8-[(1-methylazepan-4-yl)oxy]-1,2,3,4-tetrahydrobenzo[h]isoquinoline]"
7,124 to 127 °C,"CN1CCCCC1CCOc1ccc2c3c(ccc2c1)CCN(CC1CCCCC1)C3 (stereo not drawn) (as salt: oxalate) [Compound 17, 2-(cyclohexylmethyl)-8-[2-(1-methylpiperidin-2-yl)ethoxy]-1,2,3,4-tetrahydrobenzo[h]isoquinoline]"
